Assay [1] deals with inflammatory cytokines. Particulars: Hu; Ruff, 2003; cited from earlier work.
The subject of assay [2] is microglial and astrocytes. To be noted: daily peripheral administration, hippocampus; cited from earlier work.
Assay [3] deals with CCL2 (MCP-1) chemotaxis, CCR5/CCR2 (Homo sapiens, UniProt P41597). To be noted: human monocytes, FIG. 1.
Source text: Triplicate determinations were made and results are expressed as the mean plus or minus SEM. The experiment shown is a direct comparison among all RAPs. Statistical analysis was by unpaired t-test, with significance set at the p<0.01 (*) level for difference from CCL2 only chemotaxis.
A short description of assay [4]: Survival of MethA ascites tumor-bearing mice treated with LPS. To be noted: 1 mg/Kg, 50 μgm LPS i.p.; vehicle control 5/20. It counts as in vivo. How it is done: Associated with the injection of LPS is the extensive production of tumor necrosis factor alpha (TNF-α). Mice injected with recombinant human TNF-α develop pilo erection of the hair (ruffling), diarrhea and a withdrawn and unkempt appearance, followed by death if sufficient amounts are given. Rats treated with TNF become hypotensive, tachypneic and die of sudden respiratory arrest. Administration of DAPTA (1 mg/Kg) to MethA ascites tumor-bearing mice that were treated with 50 μgm LPS by i.p. injection, had better survival (15/20 in the DAPTA treated group compared to 5/20 in the vehicle control treated group). Thus DAPTA blocks septic shock via innate immune pathways, like the Toll receptors, that cause inflammation in the brain and that are typically activated in injuries.

Assay [5] deals with chemokine receptor 8 (CCR8). The assay is described as follows: Blocking of chemokine receptor 8. It counts as cell-based. An excerpt: The peptides share activity to block diverse chemokine receptors. […] Thus again, with a different receptor target, the all-D peptide performs very similarly to its mostly L-amino acid prototype first described in Pert, 1986. (FIG. 3).
The conditions of assay [6]: nerve injury model; Padi; cited from earlier work.
Assay [7] deals with inflammatory cytokines. Particulars: Rat; unpublished.
For assay [8], the system named is inflammatory cytokines. To be noted: Rat; Padi, 2012; cited from earlier work.
Another assay deals with CCL2/CCR2 (Homo sapiens, UniProt P41597). Particulars: human monocytes.
CCL2/CCR2, sequence (P41597 whole entry): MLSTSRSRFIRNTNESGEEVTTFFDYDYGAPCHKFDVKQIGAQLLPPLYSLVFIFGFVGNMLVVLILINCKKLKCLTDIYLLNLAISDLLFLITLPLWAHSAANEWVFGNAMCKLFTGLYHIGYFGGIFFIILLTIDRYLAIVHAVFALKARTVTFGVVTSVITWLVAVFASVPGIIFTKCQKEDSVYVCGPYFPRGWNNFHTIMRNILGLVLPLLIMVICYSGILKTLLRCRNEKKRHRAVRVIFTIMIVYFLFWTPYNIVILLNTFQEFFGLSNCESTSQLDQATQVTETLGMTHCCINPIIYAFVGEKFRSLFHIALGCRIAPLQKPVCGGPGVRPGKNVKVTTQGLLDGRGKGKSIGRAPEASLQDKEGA
In a further assay the target is MIP-1β (CCL4)/CCR5 (Homo sapiens, UniProt P51681). To be noted: low (sub-pM) concentrations, MIP-1β 50 ng/mL, monocytes treated with GM-CSF for 48 hours.
MIP-1β (CCL4)/CCR5, sequence (P51681 whole entry): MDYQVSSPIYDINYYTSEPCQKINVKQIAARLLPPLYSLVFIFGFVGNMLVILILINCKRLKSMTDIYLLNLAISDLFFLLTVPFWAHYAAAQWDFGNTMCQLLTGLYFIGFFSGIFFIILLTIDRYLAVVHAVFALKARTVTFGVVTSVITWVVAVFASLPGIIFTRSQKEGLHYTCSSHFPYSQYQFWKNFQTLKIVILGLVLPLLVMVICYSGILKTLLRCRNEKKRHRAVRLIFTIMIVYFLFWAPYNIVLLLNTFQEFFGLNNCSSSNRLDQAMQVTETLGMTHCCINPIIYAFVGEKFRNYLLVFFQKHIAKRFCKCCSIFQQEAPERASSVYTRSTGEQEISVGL
The target of the next assay is T1, CCR2 (MCP-1) (Homo sapiens, UniProt P41597).
T1 construct: Purified human monocytes were treated with 20 pM of All-D-pentapeptides; endogenous in cells; host or cells: purified human monocytes
T1 sequence (P41597 whole entry): as the sequence (P41597 whole entry) above
The assay is described as follows: MCP-1 elicited chemotaxis of human monocytes, all-D-pentapeptides (FIG. 2). In kind it is cell-based. Particulars: 20 pM peptide for 30 minutes, MCP-1 0.6 nM for 2 hours, purified human monocytes. An excerpt: A representative experiment is shown comprising triplicate determinations and is presented as relative fluorescence units, Mean±SEM.

Where two headings read alike, the source gives them in different places.

CCL2 (MCP-1) chemotaxis, CCR5/CCR2, sequence (P41597 whole entry): as above
Source text for MIP-1β (CCL4)/CCR5: It is compared for biopotency with an all-D amino acid close analog whereby all of the amino acids are made in the D form (RAP-310) to block the CCR5 chemokine receptors.
Data are the average of triplicate determinations. Data are presented as Mean±SEM.

Consider `C[C@@H](N)C(=O)N[C@@H](CO)C(=O)N[C@H](C(=O)N[C@H](C(=O)N[C@H](C(=O)N[C@@H](CC(N)=O)C(=O)N[C@@H](Cc1ccc(O)cc1)C(=O)N[C@H](C(N)=O)[C@@H](C)O)[C@@H](C)O)[C@@H](C)O)[C@@H](C)O` [RAP-101, D-Ala1-STTTNYT-NH2], for which, in the assay on inflammatory cytokines [1], the IL-1 change entry was “decrease”, the IL-6 change entry is on record as “decrease”, the IL-8 change result was “decrease” and the TNF-α change entry was “decrease”. Also, the “inflammatory response induced by LPS (number and reactive state of microglial and astrocytes, NFkB expression)” value in assay [2] is reported as “dramatically attenuated”. The “potency to block CCL2 (MCP-1) chemotaxis” value in [3] is given as “most potent”. For the same compound, the survival in [4] is given as 15/20. For the same compound, the “blocking of CCR8” value in assay [5] is on record as “blocks”.
`C[C@H](O)[C@@H](N)C(=O)N[C@@H](C(=O)N[C@H](CC(N)=O)C(=O)N[C@H](Cc1ccc(O)cc1)C(=O)N[C@@H](C(=O)O)[C@H](C)O)[C@H](C)O` [RAP-103, All-D-TTNYT]: the “inflammation, cytokine secretion and monocyte infiltration” value in assay [6] is reported as “blocks”. Moreover, in the assay with inflammatory cytokines [7], the CCL2 change entry is “decrease”, the CCL3 change result is on record as “decrease”, the CCR2 change result was “decrease” and the CCR5 change result is on record as “decrease”. For the same compound, in the assay on inflammatory cytokines [7], the MCP-1 change entry is on record as “decrease”, the MIP-1α change entry is given as “decrease” and the TNF-α change result is recorded as “decrease”. In the assay on inflammatory cytokines [8], the IL-1β change entry is reported as “decrease” and the IL-6 change entry is listed as “decrease”.
For the compound `C[C@H](O)[C@@H](NC(=O)[C@@H](Cc1ccc(O)cc1)NC(=O)[C@@H](CC(N)=O)NC(=O)[C@H](NC(=O)[C@H](NC(=O)[C@H](NC(=O)[C@@H](CO)NC(=O)[C@@H](C)N)[C@H](C)O)[C@H](C)O)[C@H](C)O)C(=O)O` [RAP-310], at CCL2/CCR2, the “loss of potency in blocking CCL2-elicited chemotaxis compared to RAP-101” value is given as “minimal loss of potency”. Also, the “potency to block CCR5-mediated human monocyte chemotaxis” value on MIP-1β (CCL4)/CCR5 is given as “comparable potency”. Also, the “blocking of CCR8” value in assay [5] was “comparable potency”.
As for Asn-Thr-Arg-Tyr-Arg, the “inhibition of MCP-1 elicited chemotaxis” value against CCR2 (MCP-1) is given as “efficacious”.
Same read-out and setting: the entry for “Asn-Thr-Ser-Tyr-Arg (NTSYR; Human immunodeficiency virus)” is “efficacious”; for “Asn-Thr-Ser-Tyr-Gly (NTSYG; Human immunodeficiency virus)” it is “efficacious”.
Regarding “Glu-Thr-Trp-Tyr-Ser (ETWYS; Human immunodeficiency virus)”, in the assay with CCR2 (MCP-1), the “inhibition of MCP-1 elicited chemotaxis” value was “efficacious”.
For “Ile-Asn-Asn-Tyr-Thr (INNYT; Human immunodeficiency virus)”, the “inhibition of MCP-1 elicited chemotaxis” value with CCR2 (MCP-1) is “efficacious”.
For the compound “Ile-Asp-Asn-Tyr Thr (IDNYT; Human immunodeficiency virus)”, the “inhibition of MCP-1 elicited chemotaxis” value with CCR2 (MCP-1) was “efficacious”.
On to “Ser-Ser-Thr-Tyr-Arg (SSTYR; Human immunodeficiency virus)”, for which the “inhibition of MCP-1 elicited chemotaxis” value with CCR2 (MCP-1) was “efficacious”.
Consider “Thr-Thr-Ser-Tyr-Thr (TTSYT; Human immunodeficiency virus)”, for which the “inhibition of MCP-1 elicited chemotaxis” value with CCR2 (MCP-1) is listed as “efficacious”.
